Patent US20240051931A1, “HDAC INHIBITORS” (University of Pittsburgh - Of the Commonwealth System of …, priority 2020, published 2024)

Row | SMILES | melting point
1 | O=C(NO)C1CCc2cccc(NS(=O)(=O)c3ccc(F)cc3)c2O1 (stereo not shown) [Compound 11m, 8-((4-Fluorophenyl)sulfonamido)-N-hydroxychromane-2-carboxamide] | 237 to 239 °C
2 | O=C(NO)C1CCc2cc(-c3ccc(-c4ccccc4)cc3)ccc2O1 (stereo not shown) [Compound 44a, 6-([1,1′-Biphenyl]-4-yl)-N-hydroxychromane-2-carboxamide] | 218 to 219 °C
3 | C[C@@H]1Cc2ccccc2O[C@@H]1C(=O)NO (relative stereo) [Compound 73, (rel)-(2S,3R)—N-Hydroxy-3-methylchromane-2-carboxamide] | 156 to 160 °C
4 | CC(C)NC(=O)ONC(=O)C1CCc2cc(NC(=O)c3ccc(-c4ccccc4)cc3)ccc2O1 (stereo not shown) [Compound 15, 6-([1,1′-Biphenyl]-4-carboxamido)-N-((isopropylcarbamoyl)oxy)chromane-2-carboxamide] | 200 °C (dec.)
5 | O=C(NCc1ccc(Cl)c(C(F)(F)F)c1)Nc1cccc2c1OC(C(=O)NO)CC2 (stereo not shown) [Compound 14i, 8-(3-(4-Chloro-3-(trifluoromethyl)benzyl)ureido)-N-hydroxychromane-2-carboxamide] | 195 to 197 °C
6 | O=C(NO)C1CCc2ccc(OCCOc3ccc(F)cc3)cc2O1 (stereo not shown) [Compound 50b, 7-(2-(4-Fluorophenoxy)ethoxy)-N-hydroxychromane-2-carboxamide] | 144 to 147 °C
7 | O=C(Nc1cccc2c1OC(C(=O)NO)CC2)OCc1ccccc1Cl (racemic) [Compound 11L, 2-Chlorobenzyl (2-(hydroxycarbamoyl)chroman-8-yl)carbamate] | 182 to 188 °C
8 | O=C(NO)C1CCc2cc(-c3ccc(F)cc3)ccc2O1 (stereo not shown) [Compound 44b, 6-(4-Fluorophenyl)-N-hydroxychromane-2-carboxamide] | 177 to 179 °C
9 | CS(=O)(=O)Nc1cccc2c1OC(C(=O)NO)CC2 (stereo not shown) [Compound 11o, N-Hydroxy-8-(methylsulfonamido)chromane-2-carboxamide] | 181 to 183 °C
10 | O=C(NO)C1CCc2cc(C#CCOc3ccc(F)cc3)ccc2O1 (stereo not shown) [Compound 25, 6-(3-(4-Fluorophenoxy)prop-1-yn-1-yl)-N-hydroxychromane-2-carboxamide] | 149 to 151 °C
11 | O=C(NO)[C@@H]1CCc2ccc(-c3ccc(Cl)c(Cl)c3)cc2O1 [(S)-58e, (S)-7-(3,4-Dichlorophenyl)-N-hydroxychromane-2-carboxamide] | 134 to 136 °C
12 | COc1ccc(-c2ccc3c(c2)OC(C(=O)NO)CC3)cc1 (stereo not shown) [Compound 58c, N-Hydroxy-7-(4-methoxyphenyl)chromane-2-carboxamide] | 181 to 183 °C
13 | O=C(Nc1ccc(F)cc1)Nc1cccc2c1OC(C(=O)NO)CC2 (stereo not shown) [Compound 11c, 8-(3-(4-Fluorophenyl)ureido)-N-hydroxychromane-2-carboxamide] | 231 to 232 °C
